Converted amounts (≈) assume the structure as drawn. “Also recorded” adds a separate entry of the source.
What was measured:
Bifidobacterium = assay: Antimicrobial activity in TIM-2 large intestine model; assay type: cell-based
Clostridium spp. = assay: MIC on agar plates (RCBA); assay type: cell-based
Bacteroides fragilis = assay: MIC on agar plates (RCBA); assay type: cell-based; settings: RCBA agar plate, anaerobic, 72 hours at 30° C.
[1] = test system: Lactobacillus acidophilus; assay: MIC on agar plates (MRSA)
Enterococcus hirae = assay: MIC on agar plates (MRSA)
Enterococcus = assay: Antimicrobial activity in TIM-2 large intestine model; assay type: cell-based
Pseudomonas aeruginosa = assay: MIC on agar plates (TSA); assay type: cell-based; settings: TSA agar plate, aerobic, 48 hours at 30° C.
Salmonella enteritidis = assay: MIC on agar plates (TSA); assay type: cell-based; settings: TSA agar plate, aerobic, 48 hours at 30° C.
[2] = test system: Lactobacillus acidophilus; assay: Survival in liquid ileum medium; settings: within 200 minutes
Bacillus cereus = assay: MIC on agar plates (TSA)
Lactobacillus casei = assay: MIC on agar plates (MRSA)
Clostridium difficile [3] = assay: MIC on agar plates (RCBA); assay type: cell-based; settings: Clostridioides difficile; RCBA agar plate, anaerobic, 72 hours at 30° C.
Gram-positive bacteria = assay: Antimicrobial activity on agar plates, summary for Gram-positive bacteria; assay type: cell-based
Clostridium difficile [4] = assay: Survival in liquid ileum medium; assay type: cell-based; settings: within 200 minutes
Clostridium difficile [5] = assay: Antimicrobial activity in TIM-2 large intestine model; assay type: cell-based
[6] = test system: Lactobacillus acidophilus; assay: Antimicrobial activity in small intestine model TIM-1; assay type: cell-based; settings: 20 μg/ml of sphingolipid; lumen samples plated on Rogosa agar
Clostridium perfringens = assay: microbe, parasite or virus in culture; assay type: cell-based; settings: 72 h, read-out: MIC, C. perfringens
Listeria monocytogenes = assay: MIC on agar plates (TSA)
Bifidobacterium spp. = assay: MIC on agar plates (RCBA); assay type: cell-based; settings: RCBA agar plate, anaerobic, 72 hours at 30° C.
[7] = assay type: in vitro ADME
Protocol: (§1) Because the sphingolipids need to be transported together with the food to the small and large intestines to be able to be active there, the transport of phytosphingosine and sphinganine in the stomach and small intestine model TIM-1 was tested. Also, the transport of phytosphingosine in a fistulated pig was tested after the animal had been fed with feed containing phytosphingosine (1 wt. %). In a fistulated pig, the small intestine is uncoupled from the large intestine so that the digested feed at the end of the small intestine can be collected.
To investigate whether sphingolipids from the food are transported through the small intestine without being absorbed or being chemically or enzymatically modified in the small intestine, phytosphingosine and sphinganine were mixed in a standard Tim-1 food and exposed to a TIM-1 treatment. Of each sphingolipid, 5 mg per 100 grams of food (0.005 wt. %) in the food were tested. After starting the TIM-1 digestion processes in the TIM-1 stomach, at the fixed times, lumen samples of 100 grams were taken. Also, dialysate samples were taken from the material which was transported through the semi-permeable TIM-1 membrane. The dialysate samples varied between 1428 and 1122 grams. […] Next to the samples, the exposure time in minutes is given.

Lactobacillus = assay: Antimicrobial activity in TIM-2 large intestine model; assay type: cell-based
[8] = test system: Bifidobacterium adolescentis; assay: MIC on agar plates (RCBA); assay type: cell-based; settings: RCBA agar plate, anaerobic, 72 hours at 30° C.
[9] = in vivo
Protocol: as §1
To investigate in an in vivo system whether sphingolipids from the food do actually arrive in the large intestine and are not prematurely absorbed or metabolized, pig basic feed to which phytosphingosine (1 wt. %) was added was fed to a fistulated pig.
The feed was prepared by mixing a solution of phytosphingosine in ethanol with the feed and drying it in vacuo. Every hour, the intestinal content (chymus) at the end of the small intestine was separately collected and frozen dry. The dry intestinal contents were then extracted with chloroform/methanol (2:1, v/v). The extracts were then filtered over glass wool and evaporated under a nitrogen flow. The residues were examined for the presence of phytosphingosine, sphingosine, sphinganine and sphingomyelin by means of LC-MS.

Clostridium difficile [10] = assay: Antimicrobial activity in small intestine model TIM-1; assay type: cell-based; settings: 20 μg/ml of sphingolipid; lumen samples plated on Clostridium difficile agar
Leuconostoc carnosum = assay: MIC on agar plates (MRSA)
Lactobacillus sake = assay: MIC on agar plates (MRSA)
Bacteroides = assay: Antimicrobial activity in TIM-2 large intestine model; assay type: cell-based
[11] = test system: sulfite-reducing Clostridium; assay: as above
Enterobacteriaceae = assay: as above; assay type: cell-based
Fusobacterium nucleatum = assay: MIC on agar plates (RCBA); assay type: cell-based; settings: RCBA agar plate, anaerobic, 72 hours at 30° C.
[12] = test system: Streptococcus suis type 2; assay: MIC on agar plates (TSA)
bacteria tested = assay: Antimicrobial activity on agar plates, summary for the bacteria tested; assay type: cell-based; settings: agar plates
[13] = rat, in vivo; cited from earlier work
[14] = ileum medium, absence of bile, 10 and 50 μg/ml
[15] = 60 min, 5 mg per 100 grams of food
[16] = 120 min, 5 mg per 100 grams of food
[17] = 180 min, 5 mg per 100 grams of food
[18] = 240 min, 5 mg per 100 grams of food
[19] = MRSA agar plate, anaerobic, 72 hours at 30° C.
[20] = TSA agar plate, aerobic, 48 hours at 30° C.

Molecule: CCCCCCCCCCCCCC[C@@H](O)[C@@H](O)[C@@H](N)CO [Phytosphingosine, phytosphingosine]
- Killing of other bacteria: Bifidobacterium (Bifidobacterium; 10 μg/ml): no significant killing
- Bifidobacterium decreases by a factor of (Bifidobacterium; 50 μg/ml): 55
- MIC (Clostridium spp.; Clostridium, 72 h, read-out: MIC, C. spp.): 1.1 µg/mL (≈ 3.46 µM)
- MIC (Bacteroides fragilis; Bacteroides fragilis, read-out: MIC, B. fragilis): 2.1 µg/mL (≈ 6.61 µM)
- MIC ([1]; Lactobacillus acidophilus, 72 h, read-out: MIC, L. acidophilus): > 36.5 µg/mL
- MIC (Enterococcus hirae; Enterococcus hirae, 72 h, read-out: MIC, E. hirae): > 36.5 µg/mL
- Killing of other bacteria: Enterococcus (Enterococcus; 10 μg/ml): no significant killing
- Enterococcus decreases by a factor of (Enterococcus; 50 μg/ml): 5
- MIC (Pseudomonas aeruginosa; Pseudomonas aeruginosa, read-out: MIC, P. aeruginosa): > 731 µg/mL
- MIC (Salmonella enteritidis; Salmonella enterica, ENTERITIDIS, read-out: MIC, S. enteritidis): > 731 µg/mL
- Killing of Lactobacillus acidophilus [2, 14]: virtually completely killed
- Killing of Lactobacillus acidophilus ([2]; liquid cultures, 50 ppm): for the larger part killed
- MIC (Bacillus cereus; Bacillus cereus, 48 h, read-out: MIC, B. cereus): 6.3 µg/mL (≈ 19.8 µM)
- MIC (Lactobacillus casei; Lacticaseibacillus casei, 72 h, read-out: MIC, L. casei): > 36.5 µg/mL
- MIC (Clostridium difficile [3]): 5.7 µg/mL (≈ 18 µM)
- Antimicrobial activity against Gram-positive bacteria (Gram-positive bacteria): killed; also recorded: strong antimicrobial activity
- Killing of Clostridium difficile (Clostridium difficile [4]; [14]): virtually completely killed
- Killing of Clostridium difficile (Clostridium difficile [4]; liquid cultures, 50 ppm): for the larger part killed
- Killing of C. difficile (Clostridium difficile [5]; TIM-2, 10 μg/ml): no significant killing
- Decrease of C. difficile (Clostridium difficile [5]; TIM-2, 50 μg/ml, within 12 hours): 550 fold
- Selectivity of antimicrobial activity against Clostridium difficile (Clostridium difficile [5]; TIM-2 large intestine model): selective antimicrobial activity
- Antimicrobial activity against Lactobacillus acidophilus in TIM-1 [6]: no demonstrable antimicrobial activity
- MIC (Clostridium perfringens): 5.9 µg/mL (≈ 18.6 µM)
- MIC (Listeria monocytogenes; Listeria monocytogenes, 48 h, read-out: MIC, L. monocytogenes): 6.3 µg/mL (≈ 19.8 µM)
- MIC (Bifidobacterium spp.; Bifidobacterium, read-out: MIC, Bif. spp.): 0.9 µg/mL (≈ 2.83 µM)
- Transport through the TIM-1 system [7]: transported to the large intestine to a sufficient extent
- Concentration in TIM-1 sample: Dialysate ileum 0-120′ ([7]; 5 mg per 100 grams of food): 0 ng/mL
- Concentration in TIM-1 sample: Dialysate ileum 120-240′ ([7]; 5 mg per 100 grams of food): 0 ng/mL
- Concentration in TIM-1 sample: Dialysate jejunum 0-120′ ([7]; 5 mg per 100 grams of food): 0 ng/mL
- Concentration in TIM-1 sample: Dialysate jejunum 120-240′ ([7]; 5 mg per 100 grams of food): 0 ng/mL
- Concentration in TIM-1 sample: Food ([7]; 5 mg per 100 grams of food): 5190 ng/mL
- Concentration in TIM-1 sample: Residue jejunum/ileum + dialysis fluid ([7]; 5 mg per 100 grams of food): 3320 ng/mL
- Concentration in TIM-1 sample: Residue stomach/duodenum + dialysis fluid ([7]; 5 mg per 100 grams of food): 1030 ng/mL
- Share of the amount used found in the samples (rough mass balance) ([7]; 5 mg per 100 grams of food): approx. 20%
- Concentration in TIM-1 sample: Lumen ileum 60′ [7, 15]: 200 ng/mL
- Concentration in TIM-1 sample: Lumen jejunum 60′ [7, 15]: 1470 ng/mL
- Concentration in TIM-1 sample: Lumen ileum 120′ [7, 16]: 2230 ng/mL
- Concentration in TIM-1 sample: Lumen jejunum 120′ [7, 16]: 1790 ng/mL
- Concentration in TIM-1 sample: Lumen ileum 180′ [7, 17]: 2220 ng/mL
- Concentration in TIM-1 sample: Lumen jejunum 180′ [7, 17]: 3410 ng/mL
- Concentration in TIM-1 sample: Lumen ileum 240′ [7, 18]: 1960 ng/mL
- Concentration in TIM-1 sample: Lumen jejunum 240′ [7, 18]: 4100 ng/mL
- Killing of other bacteria: Lactobacillus (Lactobacillus; 10 μg/ml): no significant killing
- Lactobacillus decreases by a factor of (Lactobacillus; 50 μg/ml): 24
- MIC ([8]; Bifidobacterium adolescentis, read-out: MIC, B. adolescentis): 8 µg/mL (≈ 25.2 µM)
- Health of the pig [9]: remained healthy
- Maximum phytosphingosine in intestinal contents at the end of the small intestine ([9]; pig): 76 μg/g of dry intestinal contents
- Time from which phytosphingosine leaves the small intestine ([9]; pig): from two hours after feeding
- Time of the maximum after feeding ([9]; pig): 9 h
- Antimicrobial activity against Clostridium difficile in TIM-1 (Clostridium difficile [10]): no demonstrable antimicrobial activity
- MIC (Leuconostoc carnosum; 72 h, read-out: MIC, L. carnosum): < 0.3 µg/mL
- MIC (Lactobacillus sake; Latilactobacillus sakei, 72 h, read-out: MIC, L. sake): 2.2 µg/mL (≈ 6.93 µM)
- Killing of other bacteria: Bacteroides (Bacteroides; 10 μg/ml): no significant killing
- Bacteroides decreases by a factor of (Bacteroides; 50 μg/ml): 10
- Killing of other bacteria: sulfite-reducing clostridia ([11]; 10 μg/ml): no significant killing
- Sulfite-reducing Clostridium decreases by a factor of ([11]; 50 μg/ml): 36
- Killing of other bacteria: Enterobacteriaceae (Enterobacteriaceae; 10 μg/ml): no significant killing
- Enterobacteriaceae decrease by a factor of (Enterobacteriaceae; 50 μg/ml): 77
- MIC (Fusobacterium nucleatum; Fusobacterium nucleatum, read-out: MIC, F. nucleatum): < 6.3 µg/mL
- MIC ([12]; Streptococcus suis, TYPE2, 48 h, read-out: MIC, S. suis type 2): 6.3 µg/mL (≈ 19.8 µM)

Molecule: sphingomyelin
- MIC, C. spp. (Clostridium spp.; RCBA agar plate, anaerobic, 72 hours at 30° C.): >731 µg/mL
- MIC, B. fragilis (Bacteroides fragilis): >731 µg/mL
- MIC, L. acidophilus ([1]; anaerobic, 72 hours at 30° C.): >731 µg/mL
- MIC, E. hirae (Enterococcus hirae; [19]): >731 µg/mL
- MIC, P. aeruginosa (Pseudomonas aeruginosa): >731 µg/mL
- Inhibition of the bacteria tested (bacteria tested): do not inhibit any of the bacteria tested
- MIC, S. enteritidis (Salmonella enteritidis): >731 µg/mL
- MIC, B. cereus (Bacillus cereus; [20]): >731 µg/mL
- MIC, L. casei (Lactobacillus casei; [19]): >731 µg/mL
- MIC, L. monocytogenes (Listeria monocytogenes; [20]): >731 µg/mL
- MIC, Bif. spp. (Bifidobacterium spp.): >731 µg/mL
- MIC, B. adolescentis [8]: >731 µg/mL
- Presence in the intestinal contents at the end of the small intestine ([9]; pig): larger amounts
- MIC, L. carnosum (Leuconostoc carnosum; agar plate, anaerobic, 72 hours at 30° C.): >731 µg/mL
- MIC, L. sake (Lactobacillus sake; anaerobic, 72 hours at 30° C.): >731 µg/mL
- Share of the sphingomyelin fed that is found in the feces [13]: approximately 25%
- MIC, F. nucleatum (Fusobacterium nucleatum): >731 µg/mL
- MIC, S. suis type 2 [12, 20]: >731 µg/mL
